In patent US7026343B2, “Pharmacologic inhibition of Myc function” (University of Pittsburgh - of the Commonwealth System of …, priority 2002, dated 2006):

Key:
Rat1a-c-Myc cells [1] = assay: Cell cycle profiles by propidium iodide flow cytometry; format: cell-based, rat; settings: 24 h, concentrations of FIG. 4
Description: This assay was performed as previously described (Nesbit C. E., Grove L. E., Yin X. Y. and Prochownik E. V. (1998), Cell Growth Differ., 9:731–741; Nesbit C. E., Tersak J. M., Grove L. E., Drzal A., Choi H. and Prochownik E. V. (2000), Oncogene, 19:3200–3212; and Yin X. Y., Grove L., Datta N., Katula K., Long M. W. and Prochownik E. V. (2001), Cancer Res., 61:6487–6493). Cell cycle profiles were performed on propidium iodide-stained nuclei as previously described (Yin et al., (1999a)) using a Becton-Dickinson FACStar flow cytometer. A total of 2×10^4 cells were analyzed in triplicate for each point and quantitation was performed using single histogram statistics.
In contrast to c-Myc's promotion of cell cycle progression, its inhibition halts this process and results in an accumulation of cells in G0/G1 (Freytag S. O. (1988), Mol. Cell. Biol., 8:1614–1624; Prochownik et al., 1988 and deAlboran et al., 2001). Therefore, it was asked whether any of the above compounds could affect the cell cycle profiles of otherwise actively proliferating cells. Rat1a-c-Myc cells were plated at low concentrations and grown for 2 additional days until attaining approximately 30% confluency. The cells were then re-fed with fresh medium alone, medium containing DMSO only, or medium containing each of the Myc-Max-specific compounds. After 24 h, cells were harvested and cell cycle profiles were generated by flow cytometry following propidium iodide staining (Yin et al., 2001). […] In contrast, all of the compounds tested caused significant increases in the fraction of the G0/G1 population.

Rat1a-c-Myc cells [2] = assay: In vivo tumor growth of pre-treated Rat1a-c-Myc cells in nude mice; settings: cells exposed 3 days to compound, then inoculated subcutaneously; no further compound
Description: All growth curves were performed in 12-well tissue culture plates as previously described (Yin et al., (1999b)). Rat1a-neo, Rat1a-c-Myc, and TGR-1 fibroblasts were seeded at an initial density of 2×10^3 cells/well whereas HO15.19 c-Myc KO cells were seeded at 5×10^3 cells/well. The following day, each compound, or DMSO vehicle alone, was added to the indicated final concentrations. Fresh medium and compound were added every 3–4 days. Cells were trypsinized and manually counted at the indicated times. […] For in vivo assays, Rat1a-c-Myc cells were grown to approximately 50% confluency. Fresh medium plus the indicated compounds, or DMSO vehicle alone, were then added to cells for an additional 3 days. At the end of this time, none of the cultures contained fewer than […] apoptotic cells as determined by trypan blue staining and TUNEL assays. The cells were then washed twice in PBS, trypsinized and resuspended in a minimal volume of fresh medium containing the same concentration of compound. In total, 2×10^7 cells were then inoculated subcutaneously into the flanks of nude mice (five animals per group) and no additional compound was administered for the duration of the experiment. Tumor growth was monitored weekly and the average tumor volume ([…].) was calculated as previously described (Yin X. Y., Grove E., Rogulski K. and Prochownik E. V., (2002), J. Biol. Chem., 277:19998–20010).
Rat1a-c-Myc cells form rapidly growing tumors in nude mice (Yin et al., 1999b). […] Rat1a-c-Myc cells were therefore exposed to the indicated Myc-Max-specific compounds for 3 days at the concentrations shown in FIG. 4. […] These cells were then inoculated into nude mice and monitored for tumor formation. Rat1a-c-Myc cells that had been incubated for 3 days in DMSO vehicle only served as a positive control.
Rat1a-c-Myc cells were exposed to the indicated Myc-Max-specific compounds for 3 days at the concentrations shown in FIG. 4, and then inoculated subcutaneously into the flanks of nude mice (five animals per group). Based on trypan blue staining, >95% of the inoculated cells were viable at the time of inoculation. Tumor growth was monitored and recorded weekly. Each point indicates the average tumor volume among the groups ±1 s.e.

SMILES: Cc1ccc2c(c1)C(=NNc1nc(C)c(C(=O)Nc3cccc([N+](=O)[O-])c3)s1)CC(c1ccccc1)O2 (stereo not shown) [#10050, 4-methyl-2-[N′-(6-methyl-2-phenyl-chroman-4-ylidene)-hydrazino]-thiazole-5-carboxylic acid (3-nitrophenyl)-amide]
- % of cells in G0/G1 (Rat1a-c-Myc cells [1]): 58.7%
- % of cells in G2/M (Rat1a-c-Myc cells [1]): 11.7%
- % of cells in S (Rat1a-c-Myc cells [1]): 29.6%
- inhibition of in vivo tumor growth (Rat1a-c-Myc cells [2]): inhibition of in vivo tumor growth

SMILES: CCCOc1ccc(N2C(=O)CC(N3CCC(C(=O)O)CC3)C2=O)cc1 (stereo not shown) [#10031, 1-[2,5-dioxo-1-(4-propoxy-phenyl)-pyrrolidin-3-yl]-piperidine-4-carboxylic acid]
- % of cells in G0/G1 (Rat1a-c-Myc cells [1]): 60.9%
- % of cells in G2/M (Rat1a-c-Myc cells [1]): 5.2%
- % of cells in S (Rat1a-c-Myc cells [1]): 33.9%

SMILES: CCc1ccc(C=C2SC(=S)NC2=O)cc1 [#10058, 5-(4-ethyl-benzylidene)-2-thioxothiazolidin-4-one]
- % of cells in G0/G1 (Rat1a-c-Myc cells [1]): 62.6%
- % of cells in G2/M (Rat1a-c-Myc cells [1]): 13.7%
- % of cells in S (Rat1a-c-Myc cells [1]): 23.7%
- inhibition of in vivo tumor growth (Rat1a-c-Myc cells [2]): inhibition of in vivo tumor growth

SMILES: O=[N+]([O-])c1ccc(Nc2ccccc2-c2ccccc2)c2nonc12 [#10074G4, biphenyl-2-yl-(7-nitro-benzo[1,2,5]oxadiazol-4-yl)-amine]
- % of cells in G0/G1 (Rat1a-c-Myc cells [1]): 53.9%
- % of cells in G2/M (Rat1a-c-Myc cells [1]): 7.4%
- % of cells in S (Rat1a-c-Myc cells [1]): 38.7%

SMILES: O=[N+]([O-])c1ccc(CCNC2CC3CCC2C3)cc1 (stereo not shown) [#10009, bicyclo[2.2.1]hept-2-yl-[2-(4-nitro-phenyl)-ethyl]-amine]
- % of cells in G0/G1 (Rat1a-c-Myc cells [1]): 66.3%
- % of cells in G2/M (Rat1a-c-Myc cells [1]): 10.6%
- % of cells in S (Rat1a-c-Myc cells [1]): 23.1%
- inhibition of in vivo tumor growth (Rat1a-c-Myc cells [2]): inhibition of in vivo tumor growth

SMILES: O=C1CSC(=O)N1CC(O)Cn1c2ccc(Cl)cc2c2cc(Cl)ccc21 (stereo not shown) [#10074A4, 3-[3-(3,6-dichloro-carbazol-9-yl)-2-hydroxy-propyl]-thiazolidine-2,4-dione]
- % of cells in G0/G1 (Rat1a-c-Myc cells [1]): 68.7%
- % of cells in G2/M (Rat1a-c-Myc cells [1]): 9.8%
- % of cells in S (Rat1a-c-Myc cells [1]): 21.5%
- inhibition of in vivo tumor growth (Rat1a-c-Myc cells [2]): inhibition of in vivo tumor growth

SMILES: CCN(CC)C1CC(=O)N(c2cccc(Cl)c2)C1=O (stereo not shown) [#10075, 1-(3-Chloro-phenyl)-3-diethylamino-pyrrolidine-2,5-dione]
- % of cells in G0/G1 (Rat1a-c-Myc cells [1]): 65.1%
- % of cells in G2/M (Rat1a-c-Myc cells [1]): 10.7%
- % of cells in S (Rat1a-c-Myc cells [1]): 24.2%
